Data taken from article PMC4047925 (Journal of Agricultural and Food Chemistry, 2014).

Assay: hydroxyl radical-scavenging assay
Assay type: biochemical
Settings: ED50 <20 μM considered active

Compound	hydroxyl radical scavenging ED50 (concentration scavenging hydroxyl radical by 50%)
COC(=O)C(C)n1c(C=O)ccc1CO (stereo not drawn) [Compound 1, methyl 2-[2-formyl-5-(hydroxymethyl)-1H-pyrrol-1-yl]propanoate]	16.7 µM
CC(=O)c1ccc(O)cn1 [Compound 6, 5-hydroxy-2-pyridyl methyl ketone]	>20 µM
O=c1c(O)c(-c2ccc(O)c(O)c2)oc2cc(O)cc(O)c12 [quercetin, reference compound]	1.3 µM
